In US20260327264A1, “PEPTIDE INHIBITORS OF INTERLEUKIN-23 RECEPTOR” (Zealand Pharma A/S, priority 2023, published 2026):
*1 amine or outer side, *2 acyl side, *3 side chain or, on linkers, in order; H or OH if unused. Where a SMILES comes first, the peptide text is derived from it. Bridges are numbered along the chain shown (N, C = ends). [ ]: non-standard residue; d: D form. The star is where a group is joined. 2Nal = N[C@@H](Cc1ccc2ccccc2c1)C(=O)O; AEF = NCCOc1ccc(C[C@H](N)C(=O)O)cc1; X1 = O=C(Cc1ccc(CN[*:1])cc1)[*:2]; 3Pal = N[C@@H](Cc1cccnc1)C(=O)O; αMeL = CC(C)C[C@](C)(N)C(=O)O; CH2COCH2 = O=C(C[*:1])C[*:2]; 3Amb = NCc1cccc(C(=O)O)c1; Pyrrolidide = C1CCN(*)C1; Dab = NCC[C@H](N)C(=O)O

Key:
[1] = target: T1, human IL-23R (Homo sapiens, UniProt Q5VWK5); experiment: Binding assay: displacement of fluorophore (TAMRA)-labelled reference compound from human IL-23R (BRET, Nluc-IL23R fusion protein membranes); details: for Emax: read-out: % displacement (hIL-23R binding)
T1 construct: Nanoluc luciferase (Nluc); secretion signal encoded by the plasmid (not specified); expressed in transfected cells; crude membranes used in the assay
T1 sequence (Q5VWK5 22-629): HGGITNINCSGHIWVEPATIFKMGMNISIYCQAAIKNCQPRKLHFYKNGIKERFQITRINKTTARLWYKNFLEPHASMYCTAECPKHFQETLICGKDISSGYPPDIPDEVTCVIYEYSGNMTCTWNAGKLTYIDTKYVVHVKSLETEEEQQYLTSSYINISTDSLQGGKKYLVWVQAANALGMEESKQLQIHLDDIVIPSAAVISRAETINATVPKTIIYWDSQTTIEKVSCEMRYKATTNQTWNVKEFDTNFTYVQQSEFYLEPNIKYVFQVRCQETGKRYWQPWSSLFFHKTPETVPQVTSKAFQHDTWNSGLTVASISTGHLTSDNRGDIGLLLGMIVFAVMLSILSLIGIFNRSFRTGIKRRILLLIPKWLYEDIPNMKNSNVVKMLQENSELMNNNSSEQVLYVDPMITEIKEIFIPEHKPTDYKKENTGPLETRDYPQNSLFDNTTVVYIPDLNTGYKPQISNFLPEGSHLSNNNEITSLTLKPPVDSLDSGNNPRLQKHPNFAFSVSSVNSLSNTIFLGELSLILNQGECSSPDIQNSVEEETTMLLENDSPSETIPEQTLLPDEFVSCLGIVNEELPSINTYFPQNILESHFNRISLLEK

[2] = system: IL-23 mediated STAT3 signalling (DB cells); experiment: Functional inhibition of IL-23 mediated STAT3 signalling (phospho-STAT3 Tyr705) in DB cells; format: cell-based, human; details: for IC50: Table 3-2, EC80 of hIL-23, read-out: hIL-23 (pSTAT3) antagonist IC50; for hIL-23 (pSTAT3) antagonist % inhibition: Table 3-2, maximal inhibitory response, EC80 of hIL-23
Excerpt: Upon binding of IL-23, the IL-23R forms a heterodimer signalling complex together with IL-12R β1, which through the JAK2/STAT3 pathway promotes phosphorylation of STAT3 to form phospho-STAT3.
For compounds tested in this assay, the response was normalized relative to control values to calculate the IC50 and maximal inhibitory response from a concentration response curve of the compound in presence of a fixed concentration of human IL-23.
The assay procedure was as follows. […] Following preincubation of the DB cells with inhibitor for 15 min in a cell incubator (37° C., 5% CO2), 20 μL of the prepared 3× the EC80 of hIL-23 solution was added to each well and incubated for 90 min in a cell incubator (37° C., 5% CO2). For some wells buffer only or IL-23 only corresponding to the EC80 was added to obtain readouts needed for normalization. To terminate the assay, the plate was spun at 1000 G for 5 min to pellet cells, the supernatant removed using an 8-channel manual pipette, and then added 50 μL/well Complete Lysis Buffer from the MSD STAT3 kit (Cat #K150SVD, Mesoscale) to the cell pellet. To completely lyse cells to release phospho-STAT3 for detection, the plate was shaken for 10 min at room temperature (500 rpm) sealed with aluminium foil and placed at −80° C. for a minimum of 15 min. Detection of the phospho-STAT3 level in the cell lysate from the individual wells was determined using the MSD STAT3 kit (Cat #K150SVD, Mesoscale) and read on a Meso QuickPlex SQ 120 plate reader (Mesoscale).
For data analysis raw data counts from the Meso QuickPlex SQ 120 plate reader were normalized relative to the response by the EC80 of hIL-23 alone (no compound added) and the buffer level.

Emax [1]	IC50 [2]	IC50 [1]	Compound	hIL-23 (pSTAT3) antagonist % inhibition [2]
94%			CC(C)C[C@]1(C)NC(=O)[C@H](Cc2ccc3ccccc3c2)NC(=O)[C@H](Cc2ccc(OCCN)cc2)NC(=O)[C@@H]2CSCC(=O)CSC[C@H](NC(=O)[C@H](CO)NC(=O)Cc3ccc(cc3)CNC(=O)CC[C@@H](C(=O)N[C@@H](CCN)C(=O)N[C@@H](Cc3cccnc3)C(N)=O)NC1=O)C(=O)N[C@@H](Cc1c[nH]c3ccccc13)C(=O)N[C@@H](CCC(N)=O)C(=O)N2 [Ref 120, [4-Aminomethyl-phenylacetyl](1c)*SC(2a)WQC(2a)[Y(2-aminoethoxy)][2-Nal][2-Me-Leu]E(1c)[Dab][3-(3-Pyridyl)-Ala]-[NH2], reference compound] ([X1]SCWQC[AEF][2Nal][αMeL]E[Dab][3Pal]-NH2; linker 3-6 via CH2COCH2; lactam N-10)	101%
101%	21 nM		CC(C)C[C@]1(C)NC(=O)[C@H](Cc2ccc3ccccc3c2)NC(=O)[C@H](Cc2ccc(OCCN)cc2)NC(=O)[C@@H]2CCNC(=O)CC[C@H](NC(=O)[C@H](CO)NC(=O)Cc3ccc(cc3)CNC(=O)CC[C@@H](C(=O)N[C@@H](CCN)C(N)=O)NC1=O)C(=O)N[C@@H](Cc1c[nH]c3ccccc13)C(=O)N[C@@H](CCC(N)=O)C(=O)N2 [Ref 125, [4-Aminomethyl-phenylacetyl](1c)*SE(2c)WQ[Dab](2c)[Y(2-aminoethoxy)][2-Nal][2-Me-Leu]E(1c)[Dab]-[NH2], reference compound]	98%
105%	42 nM	1.2 nM	CC(C)C[C@]1(C)NC(=O)[C@H](Cc2ccc3ccccc3c2)NC(=O)[C@H](Cc2ccc(OCCN)cc2)NC(=O)[C@@H]2CCNC(=O)CC[C@H](NC(=O)[C@H](CO)NC(=O)Cc3ccc(cc3)CNC(=O)CC[C@@H](C(=O)N[C@@H](CCN)C(N)=O)NC1=O)C(=O)N[C@@H](Cc1c[nH]c3ccccc13)C(=O)N[C@@H](CCC(=O)N1CCCC1)C(=O)N2 [Ref 146, [4-Aminomethyl-phenylacetyl](1c)*SE(2c)W[Q(pyrrolidin)][Dab](2c)[Y(2-aminoethoxy)][2-Nal][2-Me-Leu]E(1c)[Dab]-[NH2], reference compound] ([X1]SEWE(Pyrrolidide)[Dab][AEF][2Nal][αMeL]E[Dab]-NH2; lactam 3-6, N-10)	98%

More lines, now with the values behind:

Compound	Emax [1]	IC50 [2]	IC50 [1]	hIL-23 (pSTAT3) antagonist % inhibition [2]
CC(C)C[C@@H]1NC(=O)[C@H](Cc2c[nH]c3ccccc23)NC(=O)[C@H](Cc2c[nH]c3ccccc23)NC(=O)[C@@H]2CSCC(=O)CSC[C@H](NC(=O)[C@H](CO)NC(=O)[C@@H](NC(=O)[C@@H](N)CC(=O)O)CCC(=O)NCCCC[C@@H](C(=O)N[C@@H](CCCNC(=N)N)C(N)=O)NC1=O)C(=O)N[C@@H](Cc1c[nH]c3ccccc13)C(=O)N[C@@H](CCC(N)=O)C(=O)N2 [Ref 4, H-DE(1c)SC(2a)WQC(2a)WWLK(1c)R-[NH2], reference compound] (HELM PEPTIDE1{D.E.S.C.W.Q.C.W.W.L.K.R.[am]}|CHEM1{[O=C(C[*:1])C[*:2]]}$PEPTIDE1,PEPTIDE1,2:R3-11:R3|PEPTIDE1,CHEM1,4:R3-1:R1|PEPTIDE1,CHEM1,7:R3-1:R2$$$V2.0)	100%	850 nM		87%
CC(=O)N[C@H]1CCCCNC(=O)CC[C@@H](C(=O)N[C@@H](CCCNC(=N)N)C(N)=O)NC(=O)[C@H](CC(C)C)NC(=O)[C@H](Cc2ccc3ccccc3c2)NC(=O)[C@H](Cc2c[nH]c3ccccc23)NC(=O)[C@@H]2CSCC(=O)CSC[C@H](NC(=O)[C@H](CO)NC1=O)C(=O)N[C@@H](Cc1c[nH]c3ccccc13)C(=O)N[C@@H](CCC(N)=O)C(=O)N2 [Ref 18, [Ac]-K(1c)SC(2a)WQC(2a)W[2-Nal]LE(1c)R-[NH2], reference compound] (HELM PEPTIDE1{[ac].K.S.C.W.Q.C.W.[O=C([C@H](Cc1ccc2ccccc2c1)N[*:1])[*:2]].L.E.R.[am]}|CHEM1{[O=C(C[*:1])C[*:2]]}$PEPTIDE1,PEPTIDE1,2:R3-11:R3|PEPTIDE1,CHEM1,4:R3-1:R1|PEPTIDE1,CHEM1,7:R3-1:R2$$$V2.0)	103%	18 nM		97%
CC(C)C[C@@H]1NC(=O)[C@H](Cc2ccc3ccccc3c2)NC(=O)[C@H](Cc2c[nH]c3ccccc23)NC(=O)[C@@H]2CSCC(=O)CSC[C@H](NC(=O)[C@H](CO)NC(=O)c3cccc(c3)CNC(=O)CC[C@@H](C(=O)N[C@@H](CCCNC(=N)N)C(N)=O)NC1=O)C(=O)N[C@@H](Cc1c[nH]c3ccccc13)C(=O)N[C@@H](CCC(N)=O)C(=O)N2 [Ref 37, [(3-Aminomethyl)benzoyl](1c)*SC(2a)WQC(2a)W[2-Nal]LE(1c)R-[NH2], reference compound] ([3Amb]SCWQCW[2Nal]LER-NH2; linker 3-6 via CH2COCH2; lactam N-10)	103%	45 nM		89%
CC(C)C[C@]1(C)NC(=O)[C@H](Cc2ccc3ccccc3c2)NC(=O)[C@H](Cc2ccc(OCCN)cc2)NC(=O)[C@@H]2CSCC(=O)CSC[C@H](NC(=O)[C@H](CO)NC(=O)c3cccc(c3)CNC(=O)CC[C@@H](C(=O)N[C@H](CCCNC(=N)N)C(N)=O)NC1=O)C(=O)N[C@@H](Cc1c[nH]c3ccccc13)C(=O)N[C@@H](CCC(N)=O)C(=O)N2 [Ref 41, [(3-Aminomethyl)benzoyl](1c)*SC(2a)WQC(2a)[Y(2-aminoethoxy)][2-Nal][2-Me-Leu]E(1c)[{d}R]-[NH2], reference compound] ([3Amb]SCWQC[AEF][2Nal][αMeL]E[dR]-NH2; linker 3-6 via CH2COCH2; lactam N-10)	110%	29 nM		99%
CC(C)C[C@]1(C)NC(=O)[C@H](Cc2ccc3ccccc3c2)NC(=O)[C@H](Cc2ccc(OCCN)cc2)NC(=O)[C@@H]2CSCC(=O)CSC[C@H](NC(=O)[C@H](CO)NC(=O)Cc3ccc(cc3)CNC(=O)CC[C@@H](C(=O)N[C@@H](CCCNC(=N)N)C(N)=O)NC1=O)C(=O)N[C@@H](Cc1c[nH]c3ccccc13)C(=O)N[C@@H](CCC(N)=O)C(=O)N2 [Ref 52, [4-Aminomethyl-phenylacetyl](1c)*SC(2a)WQC(2a)[Y(2-aminoethoxy)][2-Nal][2-Me-Leu]E(1c)R-[NH2], reference compound] ([X1]SCWQC[AEF][2Nal][αMeL]ER-NH2; linker 3-6 via CH2COCH2; lactam N-10)	100%	7.8 nM		103%
CC(C)C[C@]1(C)NC(=O)[C@H](Cc2ccc3ccccc3c2)NC(=O)[C@H](Cc2ccc(OCCN)cc2)NC(=O)[C@@H]2CSCC(=O)CSC[C@H](NC(=O)[C@H](CO)NC(=O)Cc3ccc(cc3)CNC(=O)CC[C@@H](C(=O)N[C@@H](CO)C(N)=O)NC1=O)C(=O)N[C@@H](Cc1c[nH]c3ccccc13)C(=O)N[C@@H](CCC(N)=O)C(=O)N2 [Ref 81, [4-Aminomethyl-phenylacetyl](1c)*SC(2a)WQC(2a)[Y(2-aminoethoxy)][2-Nal][2-Me-Leu]E(1c)S-[NH2], reference compound]	101%	21 nM		95%
CC(C)C[C@]1(C)NC(=O)[C@H](Cc2ccc3ccccc3c2)NC(=O)[C@H](Cc2ccc(OCCN)cc2)NC(=O)[C@@H]2CSCC(=O)CSC[C@H](NC(=O)[C@H](CO)NC(=O)Cc3ccc(cc3)CNC(=O)CC[C@@H](C(=O)N[C@@H](CCN)C(N)=O)NC1=O)C(=O)N[C@@H](Cc1c[nH]c3ccccc13)C(=O)N[C@@H](CCC(N)=O)C(=O)N2 [Ref 82, [4-Aminomethyl-phenylacetyl](1c)*SC(2a)WQC(2a)[Y(2-aminoethoxy)][2-Nal][2-Me-Leu]E(1c)[Dab]-[NH2], reference compound] ([X1]SCWQC[AEF][2Nal][αMeL]E[Dab]-NH2; linker 3-6 via CH2COCH2; lactam N-10)	103%	11 nM		97%
